Assays:
PNT2 cells = assay: MTT cytotoxicity assay in PNT2 cells; assay type: cell-based, human; conditions: Homo sapiens, PNT2, 48 h, 48 h of treatment
From the text: (§1) For general experiments human prostate cancer cell lines PC-3 and DU145 (docetaxel-resistant, androgen-independent, AR-FL(−), AR-V7(−)), 22Rv1 and VCaP (docetaxel-sensitive, androgen-independent, AR-FL(+), AR-V7(+), and LNCaP (docetaxel sensitive, androgen-dependent, AR-FL(+), AR-V7(−) were used. PC-3, 22Rv1, LNCaP cells as well as the human prostate non-cancer cells PNT2 and RWPE-1 were purchased from ATCC (Manassas, VA, USA). VCaP were purchased from ECACC (Salisbury, UK). The human fibroblast cell line MRC-9, the human embryonic kidney cell line HEK 293T, as well as the human umbilical vascular endothelial cell line HUVEC were kindly donated by Prof. Dr. Dr. med. Sonja Loges (University Medical Center Hamburg-Eppendorf, Hamburg, Germany). Cells were cultured according to the manufacturers’ instructions and were recently authenticated by a commercial service (Multiplexion, Heidelberg, Germany). Culture conditions are described in the Supplementary Information.
(§2) MTT (3-(4,5-dimethylthiazol-2-yl)-2,5-diphenyltetrazolium bromide) cytotoxicity assay was used for the evaluation of cytotoxicity of the compounds or their combinations. Experiments were performed as previously described. In brief, 6000 cells/well were seeded in 96-well plate, incubated overnight, and treated with the drugs in 100 µL/well of 10% FBS/RPMI media containing 2 g/L of D-(+)-glucose for 48 h, unless otherwise stated. For 2 h treatment the cells were treated with the drugs for 2 h in the culture media, then the media was exchanged to fresh drug-free media (100 µL/well) containing MTT reagent and the further steps were performed as previously described.
(§3) Table S4. Cytotoxic activity of the synthesized compounds. Cytotoxicity was determined in human prostate cancer PC-3 cells versus human prostate non-cancer
(§4) PNT2 cells after 48 h of treatment, as well as its ratio. IC50 was evaluated using MTT assay. SI–selectivity index. #–the IC50s in both cell lines were >100 µM.
(§5) Anisomycin was used as a reference substance.
(§6) No Formula IC50(PC-3) IC50(PNT2) SI […]

MRC-9 cells = assay: MTT cytotoxicity assay in MRC-9 cells; assay type: cell-based; conditions: Homo sapiens, MRC9, 48 h of treatment, non-cancer
Protocol: (§7) Dr. Dr. med. Sonja Loges (University Medical Center Hamburg-Eppendorf, Hamburg, Germany). Cells were cultured according to the manufacturers’ instructions and were recently authenticated by a commercial service (Multiplexion, Heidelberg, Germany). Culture conditions are described in the Supplementary Information.
as §2

RWPE-1 cells = assay: MTT cytotoxicity assay in RWPE-1 cells; assay type: cell-based; conditions: Homo sapiens, 48 h of treatment, non-cancer
Protocol: as §7, §2

HEK293 cells = assay: MTT cytotoxicity assay in HEK293 cells; assay type: cell-based; conditions: Homo sapiens, 48 h of treatment, non-cancer
Protocol: as §7, §2

HUVEC cells = assay: MTT cytotoxicity assay in HUVEC cells; assay type: cell-based; conditions: Homo sapiens, 48 h of treatment, non-cancer
Protocol: as §7, §2

VCaP cells = assay: MTT cytotoxicity assay in VCaP cells; assay type: cell-based; conditions: Homo sapiens, 48 h of treatment, cancer
Protocol: as §7, §2

DU145 cells = assay: MTT cytotoxicity assay in DU145 cells; assay type: cell-based; conditions: Homo sapiens, DU-145, 48 h of treatment, cancer
Protocol: as §7, §2

22Rv1 cells [1] = assay: MTT cytotoxicity assay in 22Rv1 cells; assay type: cell-based, human; conditions: Homo sapiens
Protocol: as §7, §2

LNCaP cells = assay: MTT cytotoxicity assay in LNCaP cells; assay type: cell-based; conditions: Homo sapiens, 48 h of treatment, cancer
Protocol: as §7, §2

22Rv1 cells [2] = assay: Trypan blue exclusion viability assay; assay type: cell-based; conditions: Homo sapiens, 48 h of treatment
Protocol: The in vitro effect of the drugs on cell viability and proliferation was evaluated using trypan blue exclusion assay as described before with minor modifications. In brief, cells (0.2 × 10^6 cells/well) were seeded in 12-well plates, incubated overnight, the media was replaced with fresh media (1 mL/well) and treated with the drugs for 48 h. Cells were harvested by trypsination and the viability was measured using trypan blue staining and Beckman Coulter Vi-CELL (Beckman Coulter, Krefeld, Germany).

22Rv1 cells [3] = assay: Colony formation assay; assay type: cell-based, human; conditions: 22Rv1 cells treated with non-cytotoxic concentrations for 48 h
Protocol: Colony formation assays were performed as described before. In brief, cells were treated with the drugs for 48 h and then 100 alive cells were plated into each well of 6-well plates and incubated for 10 days. Surviving colonies were fixed, stained with Giemsa solution and counted.

22Rv1 cells [4] = assay: Western blotting of treated cells; assay type: cell-based, human
Protocol: Preparation of protein extracts for western blotting was performed as described previously. In brief, for western blotting, 1 × 10^6 cells/well were seeded in Petri dishes (ø 6 cm TC Dish (Sarstedt, Numbrecht, Germany) in 5 mL/dish), incubated overnight and treated with drugs in 5 mL/dish for an indicated time. Cells were harvested using a cell scraper, pelleted, and resuspended in the lysis buffer containing protease and phosphatase inhibitors. Further sample preparation and western blotting were performed as previously described with slight modifications. Relative optical density of the detected bands was quantified with Quantity One 4.6 software (Bio-Rad, Hercules, CA, USA). The primary and secondary antibodies used are listed in the Supplementary Information.

PC-3 cells = assay: MTT cytotoxicity assay in PC-3 cells; assay type: cell-based, human; conditions: for IC50: Homo sapiens, PC-3, 48 h, 48 h of treatment; for SI [IC50(PNT2) / IC50(PC-3)]: ratio of IC50 in PNT2 cells to IC50 in PC-3 cells, 48 h
From the text: as §1, §2, §3, §4, §5, §6

Row | Compound | IC50 (PNT2 cells) [µM] | IC50 (PC-3 cells) [µM] | SI [IC50(PNT2) / IC50(PC-3)] (PC-3 cells) | also measured
1 | O=C1C=C(OC[C@H]2OC(O)[C@H](O)[C@@H](O)[C@@H]2O)C(=O)c2c(O)cccc21 (stereo partly shown) [Compound 12] | 103 |  |  | IC50 (MRC-9 cells): 153 µM; IC50 (RWPE-1 cells): 48 µM; IC50 (HEK293 cells): 69.4 µM; IC50 (HUVEC cells): 45.7 µM; IC50 (VCaP cells): 57.5 µM; IC50 (DU145 cells): 37.1 µM; IC50 (22Rv1 cells [1]; 22Rv1, 48 h of treatment, cancer, read-out: IC50 (22Rv1)): 23.4 µM; IC50 (22Rv1 cells [1]; 22Rv1 cells, 2 h treatment, read-out: IC50 after 2 h of treatment): 94.9 µM; IC50 (LNCaP cells): 24 µM; IC50 (22Rv1 cells [2]): 14.6 µM; cancer cell colony formation (22Rv1 cells [3]): suppress cancer cell colony formation; AR-FL and AR-V7 expression (22Rv1 cells [4]; 48 h treatment): downregulated both, AR full length (AR-FL) and AR-V7; LC3B-II and SQSTM1 levels (autophagy markers) (22Rv1 cells [4]; pre-cytotoxic and cytotoxic concentrations, 48 h): accumulation of both, LC3B-II and SQSTM1
2 | COC1=CC(=O)c2ccccc2C1=O [Compound 1] | 14.5 | 9.33 | 1.55 | 
3 | CCc1c(O)c2c(c(O)c1Cl)C(=O)C(OC[C@H]1OC(O)[C@H](O)[C@@H](O)[C@@H]1O)=CC2=O (stereo partly shown) [Compound 24] | > 100 | > 100 |  | 
4 | O=C1C=C(OC[C@H]2OC(O)[C@H](O)[C@@H](O)[C@@H]2O)C(=O)c2c(O)c(Cl)c(Cl)c(O)c21 (stereo partly shown) [Compound 28] | > 100 | > 100 |  | 
5 | CC1(C)OC2OC3C(COC4=CC(=O)c5ccccc5C4=O)OC(C)(C)OC3C2O1 (stereo not shown) [Compound 2] | 16.2 | 13.1 | 1.24 | 
6 | CC1(C)OC2OC(C(O)COC3=CC(=O)c4c(O)c(Cl)c(Cl)c(O)c4C3=O)C(O)C2O1 (stereo not shown) [Compound 27] | 4.47 | 3.47 | 1.29 | 
7 | CC1(C)OC2OC(C(O)COC3=CC(=O)c4ccccc4C3=O)C(O)C2O1 (stereo not shown) [Compound 3] | 31.1 | 24.2 | 1.28 | 
8 | CCc1c(O)c2c(c(O)c1Cl)C(=O)C(OCC1OC(C)(C)OC3C1OC1OC(C)(C)OC13)=CC2=O (stereo not shown) [Compound 22] | 2.98 | 4.24 | 0.7 | 
9 | COC1=CC(=O)c2cccc(O)c2C1=O [Compound 9] | 4.05 | 2.85 | 1.42 | 
10 | CCc1c(O)c2c(c(O)c1OC)C(=O)C(OCC1OC(C)(C)OC3C1OC1OC(C)(C)OC13)=CC2=O (stereo not shown) [Compound 18] | 9.56 | 13.6 | 0.7 | 
11 | CC1(C)OC2OC3C(COC4=CC(=O)c5c(O)ccc(O)c5C4=O)OC(C)(C)OC3C2O1 (stereo not shown) [Compound 14] | 18.6 | 17.7 | 1.05 | 
12 | CC1(C)OC2OC3C(COC4=CC(=O)c5c(O)cccc5C4=O)OC(C)(C)OC3C2O1 (stereo not shown) [Compound 6] | 4.12 | 4.51 | 0.91 | 
13 | O=C1C=C(OCC2OC(O)C(O)C(O)C2O)C(=O)c2c(O)ccc(O)c21 (stereo not shown) [Compound 16] | > 100 | > 100 |  | 
14 | CCc1c(O)c2c(c(O)c1OC)C(=O)C(OC)=CC2=O [Compound 17] | 12.5 | 21.8 | 0.57 | 
15 | CC1(C)OC2OC(C(O)COC3=CC(=O)c4c(O)ccc(O)c4C3=O)C(O)C2O1 (stereo not shown) [Compound 15] | 5.65 | 5.46 | 1.03 | 
16 | O=C1C=C(OCC2OC(O)C(O)C(O)C2O)C(=O)c2ccccc21 (stereo not shown) [Compound 4] | > 100 | > 100 |  | 
17 | COC1=CC(=O)c2c(O)c(Cl)c(Cl)c(O)c2C1=O [Compound 25] | 1.22 | 2.3 | 0.53 | 
18 | CCc1c(O)c2c(c(O)c1Cl)C(=O)C(OC)=CC2=O [Compound 21] | 27.4 | 31.6 | 0.87 | 
19 | CCc1c(O)c2c(c(O)c1Cl)C(=O)C(OCC(O)C1OC3OC(C)(C)OC3C1O)=CC2=O (stereo not shown) [Compound 23] | 5.21 | 7.35 | 0.71 | 
20 | CCc1c(O)c2c(c(O)c1OC)C(=O)C(OC[C@H]1OC(O)[C@H](O)[C@@H](O)[C@@H]1O)=CC2=O (stereo partly shown) [Compound 20] | 27.9 | 99 | 0.28 | 
21 | CC1(C)OC2OC3C(COC4=CC(=O)c5c(O)c(Cl)c(Cl)c(O)c5C4=O)OC(C)(C)OC3C2O1 (stereo not shown) [Compound 26] | 2.07 | 2.75 | 0.75 | 
22 | CC1(C)OC2OC3C(COC4=CC(=O)c5cccc(O)c5C4=O)OC(C)(C)OC3C2O1 (stereo not shown) [Compound 10] | 6.37 | 4.16 | 1.53 | 
23 | CCc1c(O)c2c(c(O)c1OC)C(=O)C(OCC(O)C1OC3OC(C)(C)OC3C1O)=CC2=O (stereo not shown) [Compound 19] | 41.7 | 27.9 | 1.49 | 
24 | COC1=CC(=O)c2c(O)ccc(O)c2C1=O [Compound 13] | 9.84 | 5.38 | 1.83 | 
25 | COC1=CC(=O)c2c(O)cccc2C1=O [Compound 5] | 5.84 | 4.46 | 1.31 | 
